Data as given in patent US20260078135A1, “POLYCYCLIC QUINAZOLINES FOR INHIBITION OF ERBB2” (Enliven Inc., priority 2022, published 2026).

Assays:
[1] = molecular target: Ba/F3 ERBB2 YVMA (Homo sapiens, UniProt P04626, DUP772-775, cells depend on it); assay: Cell viability assay (CellTiter Glo), Ba/F3 cells engineered to express ERBB2 YVMA; type: cell-based, mouse; conditions: Ba/F3 cells expressing human ERBB2 YVMA mutant, 72 hours, read-out: Ba/F3 ERBB2 YVMA, IC50
How it was run: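 Ba/F3 cells (IL-3-independent via stable retroviral human ERBB2 YVMA) seeded 3000/well and given compound from about 10 μM to 0.51 nM in three-fold steps, DMSO ≤0.1%, 72 h at 37° C. Viability by CellTiter Glo luminescence, normalized to DMSO and media-only controls. Sigmoidal nonlinear fit.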

[2] = molecular target: T1, phosphorylated ERBB2 (pERBB2) (Homo sapiens, UniProt P04626); assay: Detection of phosphorylated ERBB2 (pERBB2) by ELISA in BT-474 cells; type: cell-based; conditions: four hour incubation
T1 construct: endogenous in cells; host or cells: BT-474
How it was run: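 BT-474 cells were treated with compounds (fourfold dilutions, 10 μM to 0.01 nM final) for 4 h at 37 °C, then lysed. pERBB2 in lysates was quantified by ELISA with an HRP anti-phosphotyrosine detection antibody and TMB read at 450 nm; % relative activity was normalized to no-cell and 0.1% DMSO controls.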

[3] = molecular target: T2, phosphorylated EGFR (pEGFR) (Homo sapiens, UniProt P00533); assay: Detection of phosphorylated EGFR (pEGFR) by AlphaLISA in EGF-stimulated A431 cells; type: cell-based; conditions: A431 cells (10% FBS), 4 hours incubation, EGF 30 ng/mL for 10 minutes
T2 construct: performed to measure phosphorylated EGFR levels using A431 cells (10% FBS); endogenous in cells; host or cells: A431
How it was run: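 pEGFR was quantified by AlphaLISA in lysates of A431 cells (10% FBS) given a 10 min pulse of EGF at 30 ng/mL after 4 h compound exposure at 37 °C. IC50 came from a four-parameter fit of % inhibition between DMSO and staurosporine controls.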

Chain of Ba/F3 ERBB2 YVMA (P04626 with tags, fused parts or gaps DUP772-775): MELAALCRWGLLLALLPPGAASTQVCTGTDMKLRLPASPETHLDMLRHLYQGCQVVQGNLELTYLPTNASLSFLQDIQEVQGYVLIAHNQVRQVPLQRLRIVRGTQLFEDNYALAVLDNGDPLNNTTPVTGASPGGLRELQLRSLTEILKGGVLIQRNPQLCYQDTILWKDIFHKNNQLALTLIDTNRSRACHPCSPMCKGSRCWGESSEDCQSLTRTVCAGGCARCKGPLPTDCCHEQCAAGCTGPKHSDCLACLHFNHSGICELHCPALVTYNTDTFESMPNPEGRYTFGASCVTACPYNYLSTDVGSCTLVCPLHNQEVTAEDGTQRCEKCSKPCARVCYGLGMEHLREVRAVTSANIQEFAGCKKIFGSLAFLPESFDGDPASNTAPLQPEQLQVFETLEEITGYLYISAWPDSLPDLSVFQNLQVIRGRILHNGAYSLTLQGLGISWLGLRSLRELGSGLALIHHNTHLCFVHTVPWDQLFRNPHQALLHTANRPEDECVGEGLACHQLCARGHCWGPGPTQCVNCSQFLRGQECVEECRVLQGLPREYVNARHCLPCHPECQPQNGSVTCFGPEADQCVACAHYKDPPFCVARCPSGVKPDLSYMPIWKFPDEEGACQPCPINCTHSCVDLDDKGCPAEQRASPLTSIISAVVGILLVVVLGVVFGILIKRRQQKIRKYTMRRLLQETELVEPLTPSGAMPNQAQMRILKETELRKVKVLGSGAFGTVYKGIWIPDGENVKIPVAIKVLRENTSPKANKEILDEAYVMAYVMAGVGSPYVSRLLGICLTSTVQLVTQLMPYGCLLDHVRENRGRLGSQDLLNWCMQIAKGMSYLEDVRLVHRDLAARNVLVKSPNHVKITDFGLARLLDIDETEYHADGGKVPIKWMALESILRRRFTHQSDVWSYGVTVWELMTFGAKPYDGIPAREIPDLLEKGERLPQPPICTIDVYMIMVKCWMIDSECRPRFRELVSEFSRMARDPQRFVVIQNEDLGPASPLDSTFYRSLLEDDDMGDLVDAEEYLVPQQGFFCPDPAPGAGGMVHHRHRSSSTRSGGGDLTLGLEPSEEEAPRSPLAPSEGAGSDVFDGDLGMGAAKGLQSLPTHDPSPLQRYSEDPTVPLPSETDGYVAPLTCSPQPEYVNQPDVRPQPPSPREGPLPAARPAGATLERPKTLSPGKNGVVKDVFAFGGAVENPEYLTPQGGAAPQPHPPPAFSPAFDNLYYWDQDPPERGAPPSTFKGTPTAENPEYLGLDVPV
T1 sequence (P04626 23-1255): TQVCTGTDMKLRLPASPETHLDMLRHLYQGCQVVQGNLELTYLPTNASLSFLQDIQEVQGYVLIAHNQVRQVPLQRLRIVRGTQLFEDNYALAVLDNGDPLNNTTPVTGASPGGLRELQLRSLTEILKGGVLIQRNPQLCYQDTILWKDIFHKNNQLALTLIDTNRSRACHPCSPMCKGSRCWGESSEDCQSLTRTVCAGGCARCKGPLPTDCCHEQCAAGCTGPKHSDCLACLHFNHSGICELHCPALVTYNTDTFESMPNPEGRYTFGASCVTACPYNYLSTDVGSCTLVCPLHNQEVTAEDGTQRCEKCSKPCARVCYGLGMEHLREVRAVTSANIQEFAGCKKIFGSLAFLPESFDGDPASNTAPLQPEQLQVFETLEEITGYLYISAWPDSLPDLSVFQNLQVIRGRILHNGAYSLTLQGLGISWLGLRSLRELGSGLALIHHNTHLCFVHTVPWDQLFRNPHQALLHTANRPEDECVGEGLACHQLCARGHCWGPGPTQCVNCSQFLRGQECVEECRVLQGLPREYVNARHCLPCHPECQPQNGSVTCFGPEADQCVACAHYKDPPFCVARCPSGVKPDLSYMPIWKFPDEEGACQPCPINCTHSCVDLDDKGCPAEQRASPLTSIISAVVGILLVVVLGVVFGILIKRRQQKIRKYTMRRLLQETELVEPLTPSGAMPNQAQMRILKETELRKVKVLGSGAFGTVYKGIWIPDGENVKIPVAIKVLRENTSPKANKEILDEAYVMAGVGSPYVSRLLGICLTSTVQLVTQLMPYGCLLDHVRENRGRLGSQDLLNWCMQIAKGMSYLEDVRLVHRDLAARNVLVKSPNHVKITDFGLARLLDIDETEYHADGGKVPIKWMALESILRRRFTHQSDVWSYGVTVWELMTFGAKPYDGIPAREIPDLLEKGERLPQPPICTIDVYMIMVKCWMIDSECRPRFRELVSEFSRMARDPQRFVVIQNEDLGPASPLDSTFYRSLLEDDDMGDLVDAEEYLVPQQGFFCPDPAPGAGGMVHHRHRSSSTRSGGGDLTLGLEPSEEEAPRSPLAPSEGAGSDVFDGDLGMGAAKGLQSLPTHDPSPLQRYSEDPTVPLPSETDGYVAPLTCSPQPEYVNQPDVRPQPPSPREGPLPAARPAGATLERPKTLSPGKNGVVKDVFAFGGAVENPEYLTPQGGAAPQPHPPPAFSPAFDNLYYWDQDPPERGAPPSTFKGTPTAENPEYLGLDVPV
T2 sequence (P00533 25-1210): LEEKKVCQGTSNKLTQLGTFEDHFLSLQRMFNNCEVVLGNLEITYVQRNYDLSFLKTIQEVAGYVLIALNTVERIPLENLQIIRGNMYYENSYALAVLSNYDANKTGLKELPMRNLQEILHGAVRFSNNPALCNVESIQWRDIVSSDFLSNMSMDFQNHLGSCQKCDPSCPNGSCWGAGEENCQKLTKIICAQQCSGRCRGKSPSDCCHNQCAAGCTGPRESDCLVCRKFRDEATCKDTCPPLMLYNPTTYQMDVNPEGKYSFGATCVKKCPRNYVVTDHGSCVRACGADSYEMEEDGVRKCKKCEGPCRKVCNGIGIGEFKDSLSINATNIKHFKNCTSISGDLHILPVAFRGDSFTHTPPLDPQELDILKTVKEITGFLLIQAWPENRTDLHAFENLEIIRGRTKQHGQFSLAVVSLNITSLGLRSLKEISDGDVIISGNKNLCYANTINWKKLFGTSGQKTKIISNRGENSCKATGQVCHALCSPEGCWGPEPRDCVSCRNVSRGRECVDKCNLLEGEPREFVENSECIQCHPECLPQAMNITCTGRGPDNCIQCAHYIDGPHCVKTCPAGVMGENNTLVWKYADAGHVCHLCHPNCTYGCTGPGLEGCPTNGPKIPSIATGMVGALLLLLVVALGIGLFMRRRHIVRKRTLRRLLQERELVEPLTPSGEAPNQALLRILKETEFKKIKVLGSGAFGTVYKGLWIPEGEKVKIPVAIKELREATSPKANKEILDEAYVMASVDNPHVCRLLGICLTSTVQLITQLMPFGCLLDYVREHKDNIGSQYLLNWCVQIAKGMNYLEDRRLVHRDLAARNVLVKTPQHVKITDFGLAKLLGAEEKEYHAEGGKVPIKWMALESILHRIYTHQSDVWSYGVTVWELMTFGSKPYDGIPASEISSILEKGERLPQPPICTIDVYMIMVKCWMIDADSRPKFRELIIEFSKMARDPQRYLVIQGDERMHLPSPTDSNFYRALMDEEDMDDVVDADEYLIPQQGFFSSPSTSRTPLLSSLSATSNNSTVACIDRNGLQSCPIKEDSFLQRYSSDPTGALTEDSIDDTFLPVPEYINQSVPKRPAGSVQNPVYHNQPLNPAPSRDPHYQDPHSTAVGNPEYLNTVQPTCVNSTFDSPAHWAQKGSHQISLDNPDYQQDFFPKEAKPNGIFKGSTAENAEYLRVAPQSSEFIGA

Row | IC50 [2] [nM] | IC50 [3] [nM] | SMILES | GI50 [1] [nM]
1 | 19.6 | 2160 | CN(C)C/C=C/C(=O)N1CCN2c3ccc4ncnc(Nc5ccc(Oc6ccn7ncnc7c6)c(F)c5)c4c3OC[C@@H]2C1 [Compound 94, (S,E)-1-(4-((4-([1,2,4]triazolo[1,5-a]pyridin-7-yloxy)-3-fluorophenyl)amino)-6a,7,9,10-tetrahydropyrazino[1′,2′:4,5][1,4]oxazino[2,3-f]quinazolin-8(6H)-yl)-4-(dimethylamino)but-2-en-1-one] | 19.9
2 | 83.7 | 2840 | Cc1cc(Nc2ncnc3cc4c(cc23)N2CCN(C(=O)/C=C/CN(C)C)C[C@@H]2CO4)ccc1Oc1ccc2c(c1)ncn2C [Compound 12, (R,E)-4-(dimethylamino)-1-(11-((3-methyl-4-((1-methyl-1H-benzo[d]imidazol-5-yl)oxy)phenyl)amino)-1,2,4a,5-tetrahydropyrazino[1′,2′:4,5][1,4]oxazino[3,2-g]quinazolin-3(4H)-yl)but-2-en-1-one] | 206
